Results on three molecules are retold here after patent US20020077296A1, “High-throughput screening method” (priority 2000, published 2002).

Read-outs that look alike come from different tables or passages of the source.

Assay [1] has as its target T1, Rho-kinase (Bos taurus, UniProt Q28021).
T1 construct: thus detecting the band of Rho-kinase at around 160 kDa; tissue Shiraimatsu; host or cells: bovine brain (cerebral gray matter) extract
Description: antibody plate assay: Rho-kinase immobilized from bovine brain extract, phosphorylation of Histone HF2A. It is filed as biochemical. Particulars: Histone HF2A substrate, [33P]ATP, reaction time four hours. As to the method: After allowed to stand for 1.5 hours at room temperature, the solution was removed, and 200 μl of blocking solution in which Block Ace (DAINIPPON PHARMACEUTICAL) UK-B25 was diluted four times with PBS(−)) was added into the plate, followed by stirring the solution therein. The plate was allowed to stand for additional 1.5 hours at room temperature, washed three times with 200 μl of PBST (0.05% Tween20/PBS(−)), and added with a 0.1 μg/50 μl solution of anti-Rho-kinase antibody in PBS(−).
(§1) ATP/30 μl. […] The reaction time was four hours.
(§2) SPA Multiscreen method was used for the estimation of the plate.
The inhibitory activity of these inhibitors was determined based on the radioactivity showing the phosphorylation that was detected in the antibody plate assay system, and compared to those previously reported, so that the plate was estimated in terms of the usefulness in a screening system for discovering inhibitors.

Assay [2] concerns the target T2, ROKa/ROK-II, active Cat (Rattus norvegicus, UniProt Q62868).
T2 construct: purchased Upstate
Description: phosphorylation assay with ROKa/ROK-II, active Cat (Upstate) under a similar condition. It is filed as biochemical. Here is the method:
as §1, §2

The target of assay [3] is Rho-kinase. The conditions noted are these: read-out: Ki value; cited from earlier work.
In assay [4] the test system is Rho-kinase. In words: inhibition of the binding of Rho-kinase to anti-Rho-kinase antibody-immobilized plate. Also on record: species or system bovine. As to the method: Fifty μl of the dilution of the rabbit anti-goat IgG/Fc (Nippon Chemi-Con Corp.) in PBS(−) was pipetted into Immunoplate II (Nunc, 442404, High binding capacity) or a fluorescence/luminescence solid assay plate (COSTAR, 3922 white). After allowed to stand for 1.5 hours at room temperature, the solution was removed, and 200 μl of blocking solution in which Block Ace (DAINIPPON PHARMACEUTICAL) UK-B25 was diluted four times with PBS(−)) was added into the plate, followed by stirring the solution therein. The plate was allowed to stand for additional 1.5 hours at room temperature, washed three times with 200 μl of PBST (0.05% Tween20/PBS(−)), and added with a 0.1 μg/50 μl solution of anti-Rho-kinase antibody in PBS(−). After allowed to stand for additional 1.5 hours at room temperature, the plate was washed three times with 200 μl of PBST. Into the plate was placed 50 μl of 1.5 mg/ml bovine brain lysates, and the resultant plate was allowed to stand overnight at 4° C. This was washed twice with 200 μl of PBST, and once with 200 μl of PBS(−) to provide an immobilized plate.
Various concentrations of the antigen peptide used to prepare the anti-Rho-kinase antibody were supplemented to the bovine brain extract, and then Rho-kinase in the extract was immobilized onto the plate under the optimal conditions as found in Example 5. […]

T2 sequence (Q62868 11-552 limits assumed): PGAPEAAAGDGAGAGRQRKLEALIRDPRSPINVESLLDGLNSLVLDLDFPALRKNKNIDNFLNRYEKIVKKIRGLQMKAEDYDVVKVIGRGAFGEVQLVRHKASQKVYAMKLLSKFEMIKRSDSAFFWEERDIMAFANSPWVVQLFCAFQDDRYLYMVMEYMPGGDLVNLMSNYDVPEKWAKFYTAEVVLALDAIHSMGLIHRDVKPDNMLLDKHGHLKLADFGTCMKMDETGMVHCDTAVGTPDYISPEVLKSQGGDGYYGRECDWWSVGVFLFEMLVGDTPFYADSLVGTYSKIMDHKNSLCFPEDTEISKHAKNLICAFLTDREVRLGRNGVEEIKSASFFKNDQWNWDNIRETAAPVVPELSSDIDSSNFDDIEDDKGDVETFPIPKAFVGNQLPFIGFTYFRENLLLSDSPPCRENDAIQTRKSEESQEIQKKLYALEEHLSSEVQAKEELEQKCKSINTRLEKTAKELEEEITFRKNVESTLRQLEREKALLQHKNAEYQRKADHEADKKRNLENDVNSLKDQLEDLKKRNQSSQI
T1 sequence (Q28021 whole entry): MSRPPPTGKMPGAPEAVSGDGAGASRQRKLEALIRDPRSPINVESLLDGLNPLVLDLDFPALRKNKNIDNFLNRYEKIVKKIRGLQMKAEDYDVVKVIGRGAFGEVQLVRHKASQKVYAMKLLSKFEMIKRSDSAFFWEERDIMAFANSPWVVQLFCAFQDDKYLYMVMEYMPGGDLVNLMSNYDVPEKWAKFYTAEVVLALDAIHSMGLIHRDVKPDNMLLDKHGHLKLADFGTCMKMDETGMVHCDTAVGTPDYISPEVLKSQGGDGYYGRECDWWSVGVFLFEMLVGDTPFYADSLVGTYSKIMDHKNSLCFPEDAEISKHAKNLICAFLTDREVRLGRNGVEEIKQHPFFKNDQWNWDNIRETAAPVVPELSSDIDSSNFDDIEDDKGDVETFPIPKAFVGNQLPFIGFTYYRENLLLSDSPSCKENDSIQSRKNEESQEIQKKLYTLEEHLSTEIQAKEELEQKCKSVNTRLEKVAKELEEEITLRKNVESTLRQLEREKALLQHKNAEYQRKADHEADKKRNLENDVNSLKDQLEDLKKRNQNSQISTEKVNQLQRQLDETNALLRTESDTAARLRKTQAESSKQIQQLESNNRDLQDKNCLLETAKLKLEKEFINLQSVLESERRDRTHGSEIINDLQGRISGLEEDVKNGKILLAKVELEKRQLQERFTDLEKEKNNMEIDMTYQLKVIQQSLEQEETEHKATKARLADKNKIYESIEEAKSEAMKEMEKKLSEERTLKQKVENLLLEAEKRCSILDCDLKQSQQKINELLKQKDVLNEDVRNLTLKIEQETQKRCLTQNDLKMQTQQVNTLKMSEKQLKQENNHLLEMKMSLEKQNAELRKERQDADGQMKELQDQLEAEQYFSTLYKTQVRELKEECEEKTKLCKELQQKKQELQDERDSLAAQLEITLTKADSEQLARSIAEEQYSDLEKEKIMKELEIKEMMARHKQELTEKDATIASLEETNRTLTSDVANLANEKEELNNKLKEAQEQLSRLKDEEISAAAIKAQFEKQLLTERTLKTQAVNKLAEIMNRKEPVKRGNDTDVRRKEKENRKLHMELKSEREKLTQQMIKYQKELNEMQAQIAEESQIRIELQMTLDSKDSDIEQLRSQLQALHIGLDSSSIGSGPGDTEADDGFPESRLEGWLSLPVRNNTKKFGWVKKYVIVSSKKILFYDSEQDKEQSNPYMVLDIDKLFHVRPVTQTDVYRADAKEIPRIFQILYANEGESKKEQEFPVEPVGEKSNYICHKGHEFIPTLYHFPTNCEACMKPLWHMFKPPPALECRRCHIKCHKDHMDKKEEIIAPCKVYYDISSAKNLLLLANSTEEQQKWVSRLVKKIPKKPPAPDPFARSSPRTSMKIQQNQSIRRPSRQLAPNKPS

By Ki is commonly meant a measure of affinity in units of concentration, obtained from inhibition or displacement. Turning to `C[C@@H](N)[C@H]1CC[C@H](C(=O)Nc2ccncc2)CC1` [Y-27632], the IC50 is 350 nM in assay [1] (IC50 value, bovine brain) and 790 nM in assay [2]. The Ki in assay [3] is 140 nM.

As for “IQQNQSIRRPSRQLAPNKPS [antigen peptide, 20 amino acid C-terminal partial peptide of Rho-kinase used to prepare the anti-Rho-kinase antibody]”, the “inhibition of the immobilization of Rho-kinase” value in assay [4] (3.5 μM of the peptide) is on record as around 100%. Further, in assay [4] (peptide supplemented to bovine brain extract, read-out: IC50 value, inhibition of immobilization of Rho-kinase), the IC50 was 350 nM.

For `COc1ccc2c(c[n+](C)c3c4cc5c(cc4ccc23)OCO5)c1OC` [chelerythrine], the IC50 in assay [1] (read-out: IC50 value, bovine brain) worked out at 20000 nM; in assay [2] (similar assay condition, read-out: IC50 value, ROKa/ROK-II active Cat), 11000 nM.
